biological target: Histone deacetylase 1 (Homo sapiens, UniProt Q13547)
Sequence (Q13547 whole entry): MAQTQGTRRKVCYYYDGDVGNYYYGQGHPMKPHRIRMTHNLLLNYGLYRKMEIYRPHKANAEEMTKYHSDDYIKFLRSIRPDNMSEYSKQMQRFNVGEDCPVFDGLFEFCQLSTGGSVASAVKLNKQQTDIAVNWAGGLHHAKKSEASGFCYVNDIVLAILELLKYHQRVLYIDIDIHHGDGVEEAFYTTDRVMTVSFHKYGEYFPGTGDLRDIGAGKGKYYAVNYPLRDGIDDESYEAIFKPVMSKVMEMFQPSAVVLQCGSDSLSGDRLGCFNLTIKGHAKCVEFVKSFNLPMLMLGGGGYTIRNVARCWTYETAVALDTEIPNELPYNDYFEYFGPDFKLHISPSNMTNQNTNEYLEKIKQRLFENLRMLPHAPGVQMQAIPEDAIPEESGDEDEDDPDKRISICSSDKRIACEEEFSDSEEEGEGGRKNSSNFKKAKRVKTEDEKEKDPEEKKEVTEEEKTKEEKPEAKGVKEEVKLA

SMILES	IC50
CCCCCCCC(=O)SCC/C=C/[C@@H]1CC(=O)NCc2nc(cs2)-c2nc(cs2)C(=O)N[C@@H](C(C)C)C(=O)O1	2 µM
CC(C)[C@H](NC(=O)[C@]1(C)CSC(c2cscn2)=N1)C(=O)OC/C=C/CCS	16.8 µM
Cc1nc(C2=N[C@](C)(C(=O)N[C@H](C(=O)OC/C=C/CCS)C(C)C)CS2)cs1	13.9 µM
CCCCCCCC(=O)SCC/C=C/[C@@H]1CC(=O)NCc2nc(cs2)C2=N[C@@](C)(CS2)C(=O)N[C@@H](C(C)C)C(=O)O1 [LARGAZOLE]	0.0137 µM

— ChEMBL document CHEMBL3286308, “Potent and orally efficacious bisthiazole-based histone deacetylase inhibitors” (ACS Med Chem Lett, 2014)
